Molecules are shown by their SMILES.

Sequence of human ADRA2C receptor (P18825 whole entry): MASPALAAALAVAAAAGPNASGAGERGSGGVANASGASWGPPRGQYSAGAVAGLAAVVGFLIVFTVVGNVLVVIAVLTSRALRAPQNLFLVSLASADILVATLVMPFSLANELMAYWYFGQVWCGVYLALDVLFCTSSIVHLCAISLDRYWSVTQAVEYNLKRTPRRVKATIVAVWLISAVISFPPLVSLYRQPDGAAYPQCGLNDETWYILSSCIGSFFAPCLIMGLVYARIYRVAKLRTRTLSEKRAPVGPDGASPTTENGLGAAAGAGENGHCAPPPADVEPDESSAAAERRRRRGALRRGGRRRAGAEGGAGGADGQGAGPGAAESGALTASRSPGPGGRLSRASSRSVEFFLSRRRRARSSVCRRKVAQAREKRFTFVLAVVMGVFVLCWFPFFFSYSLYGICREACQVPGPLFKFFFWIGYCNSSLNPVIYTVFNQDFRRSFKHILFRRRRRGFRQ

The target in the assay is human ADRA2C receptor (Homo sapiens (Human), UniProt P18825). Description: In vitro activity assay to determine the inhibition of recombinant ADRA2C (CHO-K1 cells, aequorin bioluminescence). To be noted: inhibition of noradrenaline-induced bioluminescence signal; some mean values from multiple determinations; read-out: ARα2C IC50. It counts as cell-based. An outline of the steps:
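IC50 is the concentration halving the agonist (noradrenaline)-evoked rise in aequorin luminescence, fitted by 4-parameter Hill function. Read in stable Gαq/aequorin CHO-K1 cells expressing recombinant human ADRA2C.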
Take `Cc1ccc(CNC(=O)c2cnc(N3CCC(N4CCC[C@@H](C)C4)CC3)s2)cn1` [Example 72, 2-[(3R)-3-methyl[1,4′-bipiperidin]-1′-yl]-N-[(6-methylpyridin-3-yl)methyl]-1,3-thiazole-5-carboxamide]: the IC50 was 0.18 µM.
Under `C[C@@H]1CCCN(C2CCN(c3ncc(C(=O)NCc4ccccc4)s3)CC2)C1` [Example 73, N-Benzyl-2-[(3R)-3-methyl[1,4′-bipiperidin]-1′-yl]-1,3-thiazole-5-carboxamide] stands 0.219 µM.
Under `CC(F)CCOCC1CCCN(C2CCN(c3ncc(C(=O)NCc4ncc(F)cc4F)s3)CC2)C1` (stereo not shown) [Example 74, diamix-N-[(3,5-Difluoropyridin-2-yl)methyl]-2-[3-({[3-fluorobutyl]oxy}methyl)[1,4′-bipiperidin]-1′-yl]-1,3-thiazole-5-carboxamide] stands 0.285 µM; under `C[C@@H]1CCCN(C2CCN(c3ncc(C(=O)NCc4ccncc4F)s3)CC2)C1` [Example 76, N-[(3-Fluoropyridin-4-yl)methyl]-2-[(3R)-3-methyl[1,4′-bipiperidin]-1′-yl]-1,3-thiazole-5-carboxamide], 0.4 µM; under `Cc1cc(C)c(CNC(=O)c2cnc(N3CCC(N4CCC[C@@H](C)C4)CC3)s2)cn1` [Example 78, N-[(4,6-Dimethylpyridin-3-yl)methyl]-2-[(3R)-3-methyl[1,4′-bipiperidin]-1′-yl]-1,3-thiazole-5-carboxamide], 0.755 µM.
As to `C[C@@H]1CCCN(C2CCN(c3ncc(C(=O)NCc4c(Cl)cnn4C)s3)CC2)C1` [Example 79, N-[(4-Chloro-1-methyl-1H-pyrazol-5-yl)methyl]-2-[(3R)-3-methyl[1,4′-bipiperidin]-1′-yl]-1,3-thiazole-5-carboxamide], the half-maximal inhibitory concentration (IC50) was determined as 0.0503 µM.
As to `COc1cccc(CNC(=O)c2cnc(N3CCC(N4CCC[C@@H](C)C4)CC3)s2)c1` [Example 80], the IC50 was determined as 0.0905 µM.
Under `C[C@@H]1CCCN(C2CCN(c3ncc(C(=O)NCc4cc(F)ccc4F)s3)CC2)C1` [Example 81] stands 0.0222 µM; under `C[C@@H]1CCCN(C2CCN(c3ncc(C(=O)NCc4cccc(O)c4)s3)CC2)C1` [Example 82], 0.102 µM.
For `CC(CNC(=O)c1cnc(N2CCC(N3CCC[C@@H](C)C3)CC2)s1)c1ccccc1` (stereo partly shown) [Example 83], the IC50 is 0.0981 µM.
Consider `C[C@@H]1CCCN(C2CCN(c3ncc(C(=O)NCc4ccc(F)cc4)s3)CC2)C1` [Example 84], for which the concentration for half-maximal inhibition (IC50) was 0.065 µM.
`C[C@@H]1CCCN(C2CCN(c3ncc(C(=O)NCc4cccnc4)s3)CC2)C1` [Example 85]: the IC50 came out at 0.6 µM.
As to `C[C@@H]1CCCN(C2CCN(c3ncc(C(=O)NCc4cccc(F)c4)s3)CC2)C1` [Example 86], the IC50 worked out at 0.028 µM.
Under `C[C@@H]1CCCN(C2CCN(c3ncc(C(=O)NCc4ccccc4F)s3)CC2)C1` [Example 87] stands 0.0255 µM; under `C[C@@H]1CCCN(C2CCN(c3ncc(C(=O)Nc4ccc(F)c(C#N)c4)s3)CC2)C1` [Example 89], 0.23 µM.
As to `C[C@@H]1CCCN(C2CCN(c3ncc(C(=O)N(C)Cc4cccnc4)s3)CC2)C1` [Example 90], the IC50 stood at 0.097 µM.
The result for `C[C@@H]1CCCN(C2CCN(c3ncc(C(=O)N(C)Cc4ccncc4)s3)CC2)C1` [Example 91] reads 0.284 µM; that for `C[C@@H]1CCCN(C2CCN(c3ncc(C(=O)N(C)Cc4ccccc4)s3)CC2)C1` [Example 92], 0.085 µM.
Regarding `C[C@@H]1CCCN(C2CCN(c3ncc(C(=O)Nc4ccccc4C4CC4)s3)CC2)C1` [Example 93], the half-maximal inhibitory concentration (IC50) is 0.63 µM.
The result for `C[C@@H]1CCCN(C2CCN(c3ncc(C(=O)NCc4cccc(Cl)c4)s3)CC2)C1` [Example 94] reads 0.15 µM.
As to `Cc1ccc(C(C)NC(=O)c2cnc(N3CCC(N4CCC[C@@H](C)C4)CC3)s2)cc1` (stereo partly shown) [Example 95], the IC50 was 0.8 µM.
Turning to `C[C@@H]1CCCN(C2CCN(c3ncc(C(=O)Nc4cc(Cl)ccc4O)s3)CC2)C1` [Example 96], the 50% inhibitory concentration (IC50) is 1 µM.

For the origin of these results see patent US20240000767A1, “COMBINATION OF AN ALPHA2-ADRENOCEPTOR SUBTYPE C (ALPHA-2C) ANTAGONIST WITH A TASK1/3 CHANNEL BLOCKER FOR THE TREATMENT OF SLEEP APNEA” (Bayer Aktiengesellschaft, priority 2020, published 2024).
